In US12448383B2, “Compounds and methods for treatment of viral infections” (priority 2022, dated 2025):
Where two headings read alike, the source gives them in different places.

Assays:
[1] = Stability in pH7 buffered solution; assay type: physicochemical; details: pH7 phosphate buffer, 40° C., Table N2
Protocol: (§1) Example N: Stability in p112 and p117 Buffered Solutions
(§2) The aqueous stability of compounds over a time of 24 hours at 40° C. was assessed. Stability was determined in 50 mM phosphate buffered solutions at both pH2 and pH7, with 150 mM NaCl (to achieve isotonicity). 3-5 mg of solid compounds were added to 7 mL scintillation vials. Acetonitrile was added to each vial to produce a 1 mg/mL stock solution. Stock solutions were diluted to 50 μg/mL in either pH2 or pH7 phosphate buffer, to a volume of 1 mL. For each compound and pH condition, 50 μg/mL samples were prepped in duplicate. One sample was placed on the UPLC tray at 40° C. for analysis, and the second sample was placed in a 40° C. oven for storage. Sample preps for each compound were offset by 40 minutes to account for run time on UPLC.
(§3) Concentration timepoints were measured at 0, 3, 6, 9, and 12 hrs. After 24 hrs, samples in the 40° C. oven were removed and analyzed by UPLC.
(§4) In FIG. 2, % AN stands for % area normalized. That is, % AN is the area of the compound peak relative to the sum of areas of all the peaks in the UPLC chromatogram. For example, if there were two peaks, compound peak with an area of 9 and another peak with an area of 1, then the % AN of the compound peak would be 90%.

[2] = tested on: SARS Coronavirus 2 recombinant with NanoLuc (SARS-CoV2-NLuc) in A549-hACE2 cells; assay: organism not typed; assay type: cell-based
[3] = tested on: Caco-2 cells (clone C2BBe1); assay: CACO-2 permeability; assay type: in vitro ADME; design: unit not given here; details: for DM Caco2 A to B: apical to basolateral, donor pH 6.5, receiver pH 7.4; for DM Caco2 B to A: basolateral to apical
In short: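 Caco-2 monolayers grown 21 days on collagen-coated transwells and checked for integrity by TEER. Donor buffer was HBSS/HEPES/glucose pH 6.5 with 200 μM BNPP; receiver was pH 7.4 with BSA. Compounds were dosed apically or basolaterally for A-to-B and B-to-A transport, with receiver sampling at 1 and 2 h, LC-MS/MS analysis and percent recovery.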

[4] = tested on: Respiratory syncytial virus recombinant with luciferase (RSV-Luc5) in Normal Human Bronchial Epithelial (NHBE) cells; assay: microbe, parasite or virus in culture; assay type: cell-based
[5] = CC50 MT4 cytotoxicity (Cell-Titer Glo); assay type: cell-based; details: human
In short: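 Uninfected MT-4 and HEp-2 cells cultured 4-5 days at 37° C with 3-fold serially diluted compound (15 nM to 100,000 nM). Viability read by Cell-Titer Glo luminescence; untreated and 2 μM puromycin wells set 100% and 0%. CC50 from non-linear regression as concentration reducing viability by 50%.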

[6] = tested on: Respiratory syncytial virus recombinant with luciferase (RSV-Luc5) in HEp-2 cells; assay: microbe, parasite or virus in culture; assay type: cell-based; details: human respiratory syncytial virus, HEp-2, 72 h, read-out: RSV Hep2 EC50
[7] = Stability in pH2 buffered solution; assay type: physicochemical; details: pH2 phosphate buffer, 40° C., 24 h; Table N2
Protocol: as §1, §2, §3, §4

[8] = Plasma stability; assay type: in vitro ADME; design: unit not given here; details: 37° C., 2 μM substrate
In short: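 Reaction mixture was sampled at 0.05, 0.5, 1, 2, 3 and 4 hr into quench solution containing internal standard, then centrifuged and diluted with water. Remaining analyte was measured by LC-MS on a Q-Exactive using a formic acid/acetonitrile gradient, with 5 ppm mass tolerance.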

[9] = GI S9 stability - no PMSF; assay type: in vitro ADME; design: GIS9-HUMAN-NoPMSF T1/2: unit: min; details: human intestinal S9, PMSF-free; for half-life at 2 µM: pH 7.4, read-out: GIS9-HUMAN-NoPMSF T1/2
In short: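 Compounds were incubated at 2 μM with PMSF-free intestinal S9 (1 mg/mL protein) in 100 mM PBS, pH 7.4, sampling at 6 time points over 120 min. Parent disappearance and formation of the nucleoside metabolite Reference Compound A were quantified by LC-MS (Q-Exactive) using analyte/internal standard peak area ratios.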

[10] = Thermodynamic solubility in pH7 buffered solution; details: 50 mM phosphate buffer pH7, 150 mM NaCl, ambient temperature, 24 hours
Protocol: Solubility was determined at ambient temperature in a 50 mM phosphate buffered pH7 solution with 150 mM NaCl (to achieve isotonicity). Solids were added to the buffered solution in 1.5-mL Eppendorf tubes, vortexed for 1 minute, then agitated for 24 hours in an Eppendorf ThermoMixer C. […] Supernatants were diluted to a volume of 1 mL with 30:70 v/v acetonitrile:water. All diluted supernatants were analyzed by UPLC using a Waters Acquity UPLC with a PDA UV detector.

[11] = physchem

SMILES | pH 7 Stability 24 h % AN [1] | EC50 ([2]; 48 h; read-out: SARS-CoV2 EC50) | DM Caco2 A to B [3] | DM Caco2 B to A [3] | EC50 ([4]; 72 h, read-out: RSV NHBE EC50) | CC50 [5] | EC50 [6] | pH 2 Stability 24 h % AN [7] | STA Human Plasma 37 [8] | EC50 ([2]; 48 h, read-out: SARS-CoV2 EC50) | half-life at 2 µM [9] | CC50 ([5]; uninfected MT-4 cells, 4-5 days, read-out: MT4 CC50) | Sol pH 7 [10] | GIS9-HUMAN-NoPMSF T1/2 [9] | EC50 ([2]; A549; read-out: EC50 SARS CoV2 NanoLuc A549 384) | logD [11] | EC50 ([4]; read-out: EC50 RSVFluc-NHBE 384 V2)
CCCC(=O)Nc1ncnn2c([C@]3(C#N)O[C@H](COC(=O)OCC(C)C)[C@@H](O)[C@H]3O)ccc12 [Compound 21, [(2R,3S,4R,5R)-5-[4-(butanoylamino)pyrrolo[2,1-f][1,2,4]triazin-7-yl]-5-cyano-3,4-dihydroxy-tetrahydrofuran-2-yl]methyl isobutyl carbonate] | 92 % AN | 12.9 µM | 1.36 | 8.33 | 2.25 µM | > 50 µM | 2.38 µM | 0 % AN | – | – | – | – | – | – | – | – | –
CCC(C)(C)OC(=O)OC[C@H]1O[C@@](C#N)(c2ccc3c(N)ncnn23)[C@H](OC(=O)OC(C)(C)CC)[C@@H]1OC(=O)OC(C)(C)CC [Compound 60, (2R,3R,4R,5R)-2-(4-aminopyrrolo[2,1-f][1,2,4]triazin-7-yl)-2-cyano-5-((((tert-pentyloxy)carbonyl)oxy)methyl)tetrahydrofuran-3,4-diyl di-tert-pentyl bis(carbonate)] | 0 % AN | – | 0.12 | 0.32 | 1.58 µM | – | – | 0 % AN | 1584 | 2.69 µM | 44.9 min | 32.9 µM | – | – | – | – | –
CC(C)OC(=O)Nc1ncnn2c([C@]3(C#N)O[C@H](COC(=O)OC(C)(C)C)[C@@H](O)[C@H]3O)ccc12 [Compound 63, isopropyl (7-((2R,3R,4S,5R)-5-(((tert-butoxycarbonyl)oxy)methyl)-2-cyano-3,4-dihydroxytetrahydrofuran-2-yl)pyrrolo[2,1-f][1,2,4]triazin-4-yl)carbamate] | 0 % AN | > 50 µM | 1.18 | 12.46 | 41.6 µM | > 50 µM | – | 3 % AN | 1584 | – | 181 min | – | 0.82 | – | – | – | –
CC(C)OC(=O)OC[C@H]1O[C@@](C#N)(c2ccc3c(N)ncnn23)[C@@H]2OC(=O)O[C@@H]21 [Compound 66, ((3aR,4R,6R,6aR)-6-(4-aminopyrrolo[2,1-f][1,2,4]triazin-7-yl)-6-cyano-2-oxotetrahydrofuro[3,4-d][1,3]dioxol-4-yl)methyl isopropyl carbonate] | 0 % AN | 3.21 µM | – | – | 0.499 µM | > 50 µM | 0.847 µM | 2 % AN | 24.2 | – | 0.491 min | – | – | – | – | – | –
CC(C)(OC(=O)OC[C@H]1O[C@@](C#N)(c2ccc3c(N)ncnn23)[C@H](O)[C@@H]1O)C(F)(F)F [Compound 67, ((2R,3S,4R,5R)-5-(4-aminopyrrolo[2,1-f][1,2,4]triazin-7-yl)-5-cyano-3,4-dihydroxytetrahydrofuran-2-yl)methyl (1,1,1-trifluoro-2-methylpropan-2-yl) carbonate] | 91 % AN | 12.8 µM | 0.99 | 9.76 | 1.52 µM | > 50 µM | – | 95 % AN | 1177.1 | – | 10.5 min | – | – | – | – | – | –
CC(C)(OC(=O)OC[C@H]1O[C@@](C#N)(c2ccc3c(N)ncnn23)[C@H](O)[C@@H]1O)C(F)F [Compound 76, ((2R,3S,4R,5R)-5-(4-aminopyrrolo[2,1-f][1,2,4]triazin-7-yl)-5-cyano-3,4-dihydroxytetrahydrofuran-2-yl)methyl (1,1-difluoro-2-methylpropan-2-yl) carbonate] | 91 % AN | > 50 µM | 2.13 | 12.17 | 3.4 µM | > 50 µM | – | 92 % AN | 1584 | – | 38.9 min | – | 0.37 | – | – | – | –
CCOC(=O)C(C)(C)OC(=O)OC[C@H]1O[C@@](C#N)(c2ccc3c(N)ncnn23)[C@H](O)[C@@H]1O [Compound 77, Ethyl 2-(((((2R,3S,4R,5R)-5-(4-aminopyrrolo[2,1-f][1,2,4]triazin-7-yl)-5-cyano-3,4-dihydroxytetrahydrofuran-2-yl)methoxy)carbonyl)oxy)-2-methyl propanoate] | 95 % AN | > 50 µM | 0.27 | 5.58 | ≥ 50 µM | > 50 µM | – | 98 % AN | 383.67 | – | 792 min | – | 4.64 | – | – | – | –
COCC(C)(C)OC(=O)OC[C@H]1O[C@@](C#N)(c2ccc3c(N)ncnn23)[C@H](O)[C@@H]1O [Compound 96, ((2R,3S,4R,5R)-5-(4-aminopyrrolo[2,1-f][1,2,4]triazin-7-yl)-5-cyano-3,4-dihydroxytetrahydrofuran-2-yl)methyl (1-methoxy-2-methylpropan-2-yl) carbonate] | 95 % AN | – | 0.09 | 4.05 | > 50 µM | > 50 µM | – | 96 % AN | 1584 | – | – | – | 1.25 | 789 | – | – | –
CCOC(=O)[C@H](C)OC(=O)OC[C@H]1O[C@@](C#N)(c2ccc3c(N)ncnn23)[C@H](O)[C@@H]1O [Compound 97, ethyl (S)-2-(((((2R,3S,4R,5R)-5-(4-aminopyrrolo[2,1-f][1,2,4]triazin-7-yl)-5-cyano-3,4-dihydroxytetrahydrofuran-2-yl)methoxy)carbonyl)oxy)propanoate] | 85 % AN | – | 0.04 | 2.15 | 6.16 µM | – | – | 98 % AN | 6.669 | – | 3.65 min | – | 6.02 | – | – | – | –
CC(C)OC(=O)[C@H]([C@@H](C)OC(=O)OC[C@H]1O[C@@](C#N)(c2ccc3c(N)ncnn23)[C@H](O)[C@@H]1O)N(C)C [Compound 145, isopropyl (2S,3R)-3-[[(2R,3S,4R,5R)-5-(4-aminopyrrolo[2,1-f][1,2,4]triazin-7-yl)-5-cyano-3,4-dihydroxy-tetrahydrofuran-2-yl]methoxycarbonyloxy]-2-(dimethylamino)butanoate] | 0 % AN | – | 0.2 | 8.475 | – | > 50 µM | – | 93 % AN | 299.49 | – | 32.8 min | – | – | – | 3.48 µM | 1.85 | 3.15 µM
